Experimental data reported in US3960877A, “N-monosubstituted-2,3-pyridinedicarboxamides, and related compounds” (priority 1974, dated 1976).

How the values were obtained:
Type in all cases: in vivo
Wild Oats [1] = experiment: Preemergence herbicidal activity, % control of plant growth; conditions: Avena fatua, pre-emergence, 504 h, 16 lb/acre, about 3 weeks
Source text: (§1) By "preemergence" is meant that the compound is applied to the soil prior to emergence of the weed species sought to be controlled. This term, as used herein, also means the application of the herbicidal compounds falling within the scope of this disclosure to areas wherein useful or desirable plants are either growing or have been sown, but where the undesirable plants sought to be controlled have not as yet emerged.
(§2) In using the compound, seeds of the types of plants set forth in Table II were sown in fresh soil. In the preemergence test the soil was sprayed with a solution of the test compound immediately after the seeds were planted, and before any noticeable growth developed. The solution was about a 2 percent by weight solution of the compound in acetone and/or alcohol. The compound was applied at the rate of 16 pounds per acre of soil surface.
(§3) Approximately 3 weeks after spray application, the herbicidal activity of the compound was determined by visual observation of the treated area in comparison with untreated control areas. These observations are reported below in Table II wherein the average activity rating is reported as the percent control of plant growth.
(§4) *Preemergence test: compound applied at rate of 16 lb/acre

Corn [2] = experiment: as above; conditions: for plant injury at 17933.6 g/ha: Zea mays, pre-emergence, 504 h, 16 lb/acre, about 3 weeks
Source text: as §1, §2, §3, §4

Johnsongrass [3] = experiment: as above; conditions: Sorghum halepense, pre-emergence, 504 h, 16 lb/acre, about 3 weeks
Source text: as §1, §2, §3, §4

Pigweed [4] = experiment: as above; conditions: for pest or weed control at 17933.6 g/ha: Amaranthus retroflexus, pre-emergence, 504 h, 16 lb/acre, about 3 weeks
Source text: as §1, §2, §3, §4

Alfalfa [5] = experiment: as above; conditions: for pest or weed control at 17933.6 g/ha: Medicago sativa, pre-emergence, 504 h, 16 lb/acre, about 3 weeks
Source text: as §1, §2, §3, §4

Chickweed [6] = experiment: as above; conditions: for pest or weed control at 17933.6 g/ha: pre-emergence, 504 h, 16 lb/acre, about 3 weeks
Source text: as §1, §2, §3, §4

Barnyard Grass [7] = experiment: as above; conditions: Echinochloa crus-galli, pre-emergence, 504 h; barnyard grass; 16 lb/acre; about 3 weeks
Source text: as §1, §2, §3, §4

Yellow Rocket [8] = experiment: as above; conditions: pre-emergence, 504 h, 16 lb/acre, about 3 weeks
Source text: as §1, §2, §3, §4

Velvetleaf [9] = experiment: as above; conditions: Abutilon theophrasti, pre-emergence, 504 h, 16 lb/acre, about 3 weeks
Source text: as §1, §2, §3, §4

Cheatgrass [10] = experiment: as above; conditions: for pest or weed control at 17933.6 g/ha: Bromus tectorum, pre-emergence, 504 h, 16 lb/acre, about 3 weeks
Source text: as §1, §2, §3, §4

Snapbeans [11] = experiment: as above; conditions: for pest or weed control at 17933.6 g/ha: pre-emergence, 504 h, 16 lb/acre, about 3 weeks
Source text: as §1, §2, §3, §4

Cucumber [12] = experiment: as above; conditions: for pest or weed control at 17933.6 g/ha: Cucumis sativus, pre-emergence, 504 h, 16 lb/acre, about 3 weeks
Source text: as §1, §2, §3, §4

Curled Dock [13] = experiment: as above; conditions: for pest or weed control at 17933.6 g/ha: pre-emergence, 504 h, 16 lb/acre, about 3 weeks
Source text: as §1, §2, §3, §4

Crabgrass [14] = experiment: as above; conditions: for pest or weed control at 17933.6 g/ha: Digitaria sanguinalis, pre-emergence, 504 h, 16 lb/acre, about 3 weeks
Source text: as §1, §2, §3, §4

Nutgrass [15] = experiment: as above; conditions: pre-emergence, 504 h, 16 lb/acre, about 3 weeks
Source text: as §1, §2, §3, §4

Foxtail [16] = experiment: as above; conditions: Setaria, pre-emergence, 504 h, 16 lb/acre, about 3 weeks
Source text: as §1, §2, §3, §4

Lambsquarters [17] = experiment: as above; conditions: for pest or weed control at 17933.6 g/ha: Chenopodium album, pre-emergence, 504 h, 16 lb/acre, about 3 weeks
Source text: as §1, §2, §3, §4

Wild Oats [18] = experiment: Postemergence herbicidal activity, % control of plant growth; conditions: Avena fatua, post-emergence, 264 h, 8 lb/acre, about 11 days
Source text: (§5) By the term "postemergence" is meant that the compound is applied to the plant sought to be controlled after it has emerged from the soil surface. This term is also used to describe the application of herbicidally active compounds to soil surface in and around growing plants sought to be controlled for purposes of effecting root absorption by the undesirable plant species.
(§6) In the postemergence test the soil and developing plants were sprayed approximately 2 weeks after the seeds were sown. The compound was applied at the rate of 8 pounds per acre from about a 2 percent by weight solution of the test compound in acetone and/or alcohol. The postemergence herbicidal activity was measured in the same way as the preemergence activity; i.e. visual observation approximately 11 days after spraying, and expressed as the percent control of plant growth.
(§7) **Postemergence test: compound applied at rate of 8 lb/acre

Corn [19] = experiment: as above; conditions: Zea mays, post-emergence, 264 h, 8 lb/acre, about 11 days
Source text: as §5, §6, §7

Johnsongrass [20] = experiment: as above; conditions: Sorghum halepense, post-emergence, 264 h, 8 lb/acre, about 11 days
Source text: as §5, §6, §7

Pigweed [21] = experiment: as above; conditions: Amaranthus retroflexus, post-emergence, 264 h, 8 lb/acre, about 11 days
Source text: as §5, §6, §7

Alfalfa [22] = experiment: as above; conditions: Medicago sativa, post-emergence, 264 h, 8 lb/acre, about 11 days
Source text: as §5, §6, §7

Chickweed [23] = experiment: as above; conditions: post-emergence, 264 h, 8 lb/acre, about 11 days
Source text: as §5, §6, §7

Barnyard Grass [24] = experiment: as above; conditions: Echinochloa crus-galli, post-emergence, 264 h, 8 lb/acre, about 11 days
Source text: as §5, §6, §7

Yellow Rocket [25] = experiment: as above; conditions: post-emergence, 264 h, 8 lb/acre, about 11 days
Source text: as §5, §6, §7

Velvetleaf [26] = experiment: as above; conditions: Abutilon theophrasti, post-emergence, 264 h, 8 lb/acre, about 11 days
Source text: as §5, §6, §7

Cheatgrass [27] = experiment: as above; conditions: Bromus tectorum, post-emergence, 264 h, 8 lb/acre, about 11 days
Source text: as §5, §6, §7

Snapbeans [28] = experiment: as above; conditions: post-emergence, 264 h, 8 lb/acre, about 11 days
Source text: as §5, §6, §7

Cucumber [29] = experiment: as above; conditions: Cucumis sativus, post-emergence, 264 h, 8 lb/acre, about 11 days
Source text: as §5, §6, §7

Curled Dock [30] = experiment: as above; conditions: post-emergence, 264 h, 8 lb/acre, about 11 days
Source text: as §5, §6, §7

Crabgrass [31] = experiment: as above; conditions: Digitaria sanguinalis, post-emergence, 264 h, 8 lb/acre, about 11 days
Source text: as §5, §6, §7

Nutgrass [32] = experiment: as above; conditions: post-emergence, 264 h, 8 lb/acre, about 11 days
Source text: as §5, §6, §7

Foxtail [33] = experiment: as above; conditions: Setaria, post-emergence, 264 h, 8 lb/acre, about 11 days
Source text: as §5, §6, §7

Lambsquarters [34] = experiment: as above; conditions: Chenopodium album, post-emergence, 264 h, 8 lb/acre, about 11 days
Source text: as §5, §6, §7

C=CCn1c(=O)[nH]c2cccnc2c1=O [3-allyl-pyrido[3,2-d]pyrimidine-2,4(1H,3H)-dione]
pest or weed control at 17933.6 g/ha (Wild Oats [1]): 100% | plant injury at 17933.6 g/ha (Corn [2]): 50% | pest or weed control at 17933.6 g/ha (Johnsongrass [3]): 90% | pest or weed control at 17933.6 g/ha (Pigweed [4]): 100% | pest or weed control at 17933.6 g/ha (Alfalfa [5]): 100% | pest or weed control at 17933.6 g/ha (Chickweed [6]): 100% | pest or weed control at 17933.6 g/ha (Barnyard Grass [7]): 90% | pest or weed control at 17933.6 g/ha (Yellow Rocket [8]): 100% | pest or weed control at 17933.6 g/ha (Velvetleaf [9]): 90% | pest or weed control at 17933.6 g/ha (Cheatgrass [10]): 100% | pest or weed control at 17933.6 g/ha (Snapbeans [11]): 100% | pest or weed control at 17933.6 g/ha (Cucumber [12]): 100% | pest or weed control at 17933.6 g/ha (Curled Dock [13]): 100% | pest or weed control at 17933.6 g/ha (Crabgrass [14]): 100% | pest or weed control at 17933.6 g/ha (Nutgrass [15]): 20% | pest or weed control at 17933.6 g/ha (Foxtail [16]): 90% | pest or weed control at 17933.6 g/ha (Lambsquarters [17]): 100% | pest or weed control at 8966.8 g/ha (Wild Oats [18]): 20% | plant injury at 8966.8 g/ha (Corn [19]): 30% | pest or weed control at 8966.8 g/ha (Johnsongrass [20]): 100% | pest or weed control at 8966.8 g/ha (Pigweed [21]): 100% | pest or weed control at 8966.8 g/ha (Alfalfa [22]): 100% | pest or weed control at 8966.8 g/ha (Chickweed [23]): 100% | pest or weed control at 8966.8 g/ha (Barnyard Grass [24]): 100% | pest or weed control at 8966.8 g/ha (Yellow Rocket [25]): 100% | pest or weed control at 8966.8 g/ha (Velvetleaf [26]): 100% | pest or weed control at 8966.8 g/ha (Cheatgrass [27]): 30% | pest or weed control at 8966.8 g/ha (Snapbeans [28]): 100% | pest or weed control at 8966.8 g/ha (Cucumber [29]): 100% | pest or weed control at 8966.8 g/ha (Curled Dock [30]): 100% | pest or weed control at 8966.8 g/ha (Crabgrass [31]): 100% | pest or weed control at 8966.8 g/ha (Nutgrass [32]): 30% | pest or weed control at 8966.8 g/ha (Foxtail [33]): 100% | pest or weed control at 8966.8 g/ha (Lambsquarters [34]): 100%

O=c1[nH]c2cccnc2c(=O)n1Cc1ccccc1 [3-benzyl-pyrido[3,2-d]pyrimidine-[2,4(1H,3H)-dione]
pest or weed control at 17933.6 g/ha (Wild Oats [1]): 30% | herbicidal activity/control (Corn [2]; 16 pounds per acre): no preemergence herbicidal activity | plant injury at 17933.6 g/ha (Corn [2]): 10% | pest or weed control at 17933.6 g/ha (Johnsongrass [3]): 90% | herbicidal activity/control (Pigweed [4]; 16 pounds per acre): total preemergence activity | pest or weed control at 17933.6 g/ha (Pigweed [4]): 100% | herbicidal activity/control (Alfalfa [5]; 16 pounds per acre): total preemergence activity | pest or weed control at 17933.6 g/ha (Alfalfa [5]): 100% | herbicidal activity/control (Chickweed [6]; 16 pounds per acre): total preemergence activity | pest or weed control at 17933.6 g/ha (Chickweed [6]): 100% | pest or weed control at 17933.6 g/ha (Barnyard Grass [7]): 90% | pest or weed control at 17933.6 g/ha (Yellow Rocket [8]): 90% | pest or weed control at 17933.6 g/ha (Velvetleaf [9]): 90% | herbicidal activity/control (Cheatgrass [10]; 16 pounds per acre): total preemergence activity | pest or weed control at 17933.6 g/ha (Cheatgrass [10]): 100% | herbicidal activity/control (Snapbeans [11]; 16 pounds per acre): no preemergence herbicidal activity | pest or weed control at 17933.6 g/ha (Snapbeans [11]): 10% | herbicidal activity/control (Cucumber [12]; 16 pounds per acre): no preemergence herbicidal activity | pest or weed control at 17933.6 g/ha (Cucumber [12]): 0% | herbicidal activity/control (Curled Dock [13]; 16 pounds per acre): total preemergence activity | pest or weed control at 17933.6 g/ha (Curled Dock [13]): 100% | herbicidal activity/control (Crabgrass [14]; 16 pounds per acre): total preemergence activity | pest or weed control at 17933.6 g/ha (Crabgrass [14]): 100% | pest or weed control at 17933.6 g/ha (Nutgrass [15]): 0% | pest or weed control at 17933.6 g/ha (Foxtail [16]): 90% | herbicidal activity/control (Lambsquarters [17]; 16 pounds per acre): total preemergence activity | pest or weed control at 17933.6 g/ha (Lambsquarters [17]): 100% | pest or weed control at 8966.8 g/ha (Wild Oats [18]): 0% | plant injury at 8966.8 g/ha (Corn [19]): 0% | pest or weed control at 8966.8 g/ha (Johnsongrass [20]): 0% | pest or weed control at 8966.8 g/ha (Pigweed [21]): 100% | pest or weed control at 8966.8 g/ha (Alfalfa [22]): 0% | pest or weed control at 8966.8 g/ha (Chickweed [23]): 100% | pest or weed control at 8966.8 g/ha (Barnyard Grass [24]): 0% | pest or weed control at 8966.8 g/ha (Yellow Rocket [25]): 70% | pest or weed control at 8966.8 g/ha (Velvetleaf [26]): 30% | pest or weed control at 8966.8 g/ha (Cheatgrass [27]): 0% | pest or weed control at 8966.8 g/ha (Snapbeans [28]): 0% | pest or weed control at 8966.8 g/ha (Cucumber [29]): 10% | pest or weed control at 8966.8 g/ha (Curled Dock [30]): 0% | pest or weed control at 8966.8 g/ha (Crabgrass [31]): 40% | pest or weed control at 8966.8 g/ha (Nutgrass [32]): 0% | pest or weed control at 8966.8 g/ha (Foxtail [33]): 0% | pest or weed control at 8966.8 g/ha (Lambsquarters [34]): 60%
